Experiments:
Experiment in all cases: Kinase selectivity, scanMAX Kinase assay panel (DiscoverX), % control at 1 uM
Format in all cases: binding
[1] = target: T1, scanMAX Kinase assay panel (Homo sapiens, UniProt Q14289); conditions: PYK2; 1 uM; read-out: Percent Control (%)
T1 construct: purchased DiscoverX
Procedure, shortened: (§1)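 Compounds were tested at 1 uM in DMSO against each enzyme in the panel. Percent control was calculated as (compound − positive control)/(negative control − positive control) × 100, and a compound was scored active on a kinase when this value fell below 35.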

[2] = target: T2, scanMAX Kinase assay panel (Homo sapiens, UniProt P00533); conditions: EGFR; 1 uM; read-out: Percent Control (%)
T2 construct: purchased DiscoverX
Procedure, shortened: as §1

[3] = target: T3, scanMAX Kinase assay panel (Homo sapiens, UniProt O96017); conditions: CHEK2; 1 uM; read-out: Percent Control (%)
T3 construct: purchased DiscoverX
Procedure, shortened: as §1

[4] = target: T4, scanMAX Kinase assay panel (Homo sapiens, UniProt Q9UBE8); conditions: NLK; 1 uM; read-out: Percent Control (%)
T4 construct: purchased DiscoverX
T4 sequence (Q9UBE8 1-527): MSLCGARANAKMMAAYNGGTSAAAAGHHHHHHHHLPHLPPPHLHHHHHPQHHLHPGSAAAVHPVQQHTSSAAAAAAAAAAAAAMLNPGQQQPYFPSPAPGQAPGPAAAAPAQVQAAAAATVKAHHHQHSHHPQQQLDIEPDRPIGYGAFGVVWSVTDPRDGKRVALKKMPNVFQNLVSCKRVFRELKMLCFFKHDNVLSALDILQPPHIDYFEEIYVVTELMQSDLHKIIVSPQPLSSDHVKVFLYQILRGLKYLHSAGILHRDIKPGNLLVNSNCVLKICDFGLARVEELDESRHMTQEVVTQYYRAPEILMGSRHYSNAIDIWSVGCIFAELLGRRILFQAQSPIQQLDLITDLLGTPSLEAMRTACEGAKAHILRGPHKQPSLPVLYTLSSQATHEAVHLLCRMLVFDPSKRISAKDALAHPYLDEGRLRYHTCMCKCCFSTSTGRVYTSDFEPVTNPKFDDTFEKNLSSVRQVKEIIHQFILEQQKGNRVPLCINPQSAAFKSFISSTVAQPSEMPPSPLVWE
Procedure, shortened: as §1

[5] = target: T5, scanMAX Kinase assay panel (Homo sapiens, UniProt Q15303); conditions: ERBB4; 1 uM; read-out: Percent Control (%)
T5 construct: purchased DiscoverX
Procedure, shortened: as §1

[6] = target: T6, scanMAX Kinase assay panel (Homo sapiens, UniProt Q16620); conditions: TRKB; 1 uM; read-out: Percent Control (%)
T6 construct: purchased DiscoverX
Procedure, shortened: as §1

[7] = target: T7, scanMAX Kinase assay panel (Homo sapiens, UniProt P21860); conditions: ERBB3; 1 uM; read-out: Percent Control (%)
T7 construct: purchased DiscoverX
Procedure, shortened: as §1

[8] = target: T8, scanMAX Kinase assay panel (Homo sapiens, UniProt P42345); conditions: MTOR; 1 uM; read-out: Percent Control (%)
T8 construct: purchased DiscoverX
Procedure, shortened: as §1

[9] = target: T9, scanMAX Kinase assay panel (Homo sapiens, UniProt Q9UEE5); conditions: DRAK1; 1 uM; read-out: Percent Control (%)
T9 construct: purchased DiscoverX
T9 sequence (Q9UEE5 1-414): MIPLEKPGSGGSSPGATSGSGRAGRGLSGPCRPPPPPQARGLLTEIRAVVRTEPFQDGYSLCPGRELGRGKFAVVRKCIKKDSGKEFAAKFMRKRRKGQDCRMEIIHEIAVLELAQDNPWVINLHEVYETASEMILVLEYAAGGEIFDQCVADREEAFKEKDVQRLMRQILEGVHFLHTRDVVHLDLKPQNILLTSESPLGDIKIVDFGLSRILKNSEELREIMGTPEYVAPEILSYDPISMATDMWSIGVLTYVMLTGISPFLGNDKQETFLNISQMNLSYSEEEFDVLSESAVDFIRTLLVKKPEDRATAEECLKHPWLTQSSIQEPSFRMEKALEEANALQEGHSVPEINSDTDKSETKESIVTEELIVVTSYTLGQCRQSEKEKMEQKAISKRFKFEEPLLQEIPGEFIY
Procedure, shortened: as §1

[10] = target: T10, scanMAX Kinase assay panel (Homo sapiens, UniProt P0C1S8); conditions: WEE2; 1 uM; read-out: Percent Control (%)
T10 construct: purchased DiscoverX
Procedure, shortened: as §1

[11] = target: T11, scanMAX Kinase assay panel (Homo sapiens, UniProt P50750); conditions: CDK9; 1 uM; read-out: Percent Control (%)
T11 construct: purchased DiscoverX
Procedure, shortened: as §1

[12] = target: T12, scanMAX Kinase assay panel (Homo sapiens, UniProt Q8TD08); conditions: ERK8; 1 uM; read-out: Percent Control (%)
T12 construct: purchased DiscoverX
T12 sequence (Q8TD08 1-544): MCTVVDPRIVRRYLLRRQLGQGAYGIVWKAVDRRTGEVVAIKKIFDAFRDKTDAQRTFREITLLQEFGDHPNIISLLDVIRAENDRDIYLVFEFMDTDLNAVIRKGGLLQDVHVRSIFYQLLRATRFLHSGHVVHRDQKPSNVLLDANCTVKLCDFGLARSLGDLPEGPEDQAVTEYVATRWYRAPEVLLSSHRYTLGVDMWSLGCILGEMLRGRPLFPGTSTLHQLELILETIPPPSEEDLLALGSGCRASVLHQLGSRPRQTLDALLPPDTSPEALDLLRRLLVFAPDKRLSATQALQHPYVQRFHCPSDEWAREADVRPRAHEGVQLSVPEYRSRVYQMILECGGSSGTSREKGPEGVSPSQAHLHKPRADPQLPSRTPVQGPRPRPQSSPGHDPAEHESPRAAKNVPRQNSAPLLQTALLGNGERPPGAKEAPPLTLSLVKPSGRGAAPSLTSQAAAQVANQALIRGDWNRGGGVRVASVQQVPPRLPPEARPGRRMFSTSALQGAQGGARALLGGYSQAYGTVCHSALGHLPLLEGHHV
Procedure, shortened: as §1

[13] = target: T13, scanMAX Kinase assay panel (Homo sapiens, UniProt P00533, L861Q); conditions: EGFR (L861Q); 1 uM; read-out: Percent Control (%)
T13 construct: purchased DiscoverX
Procedure, shortened: as §1

[14] = target: T14, scanMAX Kinase assay panel (Homo sapiens, UniProt Q13627); conditions: DYRK1A; 1 uM; read-out: Percent Control (%)
T14 construct: purchased DiscoverX
Procedure, shortened: as §1

T2 sequence (P00533 25-1210): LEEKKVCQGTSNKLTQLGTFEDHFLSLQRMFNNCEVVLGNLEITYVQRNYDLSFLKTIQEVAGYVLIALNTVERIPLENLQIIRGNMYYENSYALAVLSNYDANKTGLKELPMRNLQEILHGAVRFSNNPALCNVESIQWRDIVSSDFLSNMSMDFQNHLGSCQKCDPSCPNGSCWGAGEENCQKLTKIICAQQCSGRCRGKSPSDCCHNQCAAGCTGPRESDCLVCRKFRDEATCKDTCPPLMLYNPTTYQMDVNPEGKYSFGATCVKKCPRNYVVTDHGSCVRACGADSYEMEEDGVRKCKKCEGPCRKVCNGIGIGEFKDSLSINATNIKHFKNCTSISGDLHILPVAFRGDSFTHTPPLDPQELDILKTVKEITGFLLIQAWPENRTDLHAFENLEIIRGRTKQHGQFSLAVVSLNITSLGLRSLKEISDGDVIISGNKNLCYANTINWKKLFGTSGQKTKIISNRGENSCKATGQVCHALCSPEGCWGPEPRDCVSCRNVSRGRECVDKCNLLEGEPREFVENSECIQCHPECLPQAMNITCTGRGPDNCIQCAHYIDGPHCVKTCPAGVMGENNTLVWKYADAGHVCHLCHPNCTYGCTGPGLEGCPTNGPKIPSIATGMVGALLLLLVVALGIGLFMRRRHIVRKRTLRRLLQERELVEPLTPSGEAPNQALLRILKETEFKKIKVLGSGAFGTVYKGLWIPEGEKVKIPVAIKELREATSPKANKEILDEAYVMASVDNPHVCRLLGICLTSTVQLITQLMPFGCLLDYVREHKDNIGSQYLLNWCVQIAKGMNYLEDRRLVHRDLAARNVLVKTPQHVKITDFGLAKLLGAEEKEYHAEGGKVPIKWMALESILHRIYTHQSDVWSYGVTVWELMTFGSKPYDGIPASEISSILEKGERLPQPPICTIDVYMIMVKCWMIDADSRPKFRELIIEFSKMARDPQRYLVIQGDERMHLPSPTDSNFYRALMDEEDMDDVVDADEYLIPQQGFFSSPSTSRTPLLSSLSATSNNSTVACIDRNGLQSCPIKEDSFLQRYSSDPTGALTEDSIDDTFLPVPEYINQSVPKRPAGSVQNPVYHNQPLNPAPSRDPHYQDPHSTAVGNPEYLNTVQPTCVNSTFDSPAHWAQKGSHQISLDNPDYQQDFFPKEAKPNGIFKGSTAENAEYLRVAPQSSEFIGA
T3 sequence (O96017 whole entry): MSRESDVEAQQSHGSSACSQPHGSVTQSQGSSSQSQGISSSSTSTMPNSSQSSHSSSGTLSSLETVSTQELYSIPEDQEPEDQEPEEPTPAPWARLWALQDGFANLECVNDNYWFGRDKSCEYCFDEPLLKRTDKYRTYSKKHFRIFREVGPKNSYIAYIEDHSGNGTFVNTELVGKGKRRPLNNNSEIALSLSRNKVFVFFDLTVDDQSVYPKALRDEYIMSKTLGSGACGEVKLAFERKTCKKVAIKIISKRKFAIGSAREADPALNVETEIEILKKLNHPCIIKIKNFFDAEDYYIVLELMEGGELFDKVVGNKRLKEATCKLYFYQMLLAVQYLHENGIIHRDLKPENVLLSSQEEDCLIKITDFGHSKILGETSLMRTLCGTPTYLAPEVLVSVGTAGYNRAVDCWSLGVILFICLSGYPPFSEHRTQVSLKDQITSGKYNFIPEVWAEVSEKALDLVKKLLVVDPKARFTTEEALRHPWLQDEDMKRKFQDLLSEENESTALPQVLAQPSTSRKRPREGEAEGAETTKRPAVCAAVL
T13 sequence (P00533 25-1210 L861Q): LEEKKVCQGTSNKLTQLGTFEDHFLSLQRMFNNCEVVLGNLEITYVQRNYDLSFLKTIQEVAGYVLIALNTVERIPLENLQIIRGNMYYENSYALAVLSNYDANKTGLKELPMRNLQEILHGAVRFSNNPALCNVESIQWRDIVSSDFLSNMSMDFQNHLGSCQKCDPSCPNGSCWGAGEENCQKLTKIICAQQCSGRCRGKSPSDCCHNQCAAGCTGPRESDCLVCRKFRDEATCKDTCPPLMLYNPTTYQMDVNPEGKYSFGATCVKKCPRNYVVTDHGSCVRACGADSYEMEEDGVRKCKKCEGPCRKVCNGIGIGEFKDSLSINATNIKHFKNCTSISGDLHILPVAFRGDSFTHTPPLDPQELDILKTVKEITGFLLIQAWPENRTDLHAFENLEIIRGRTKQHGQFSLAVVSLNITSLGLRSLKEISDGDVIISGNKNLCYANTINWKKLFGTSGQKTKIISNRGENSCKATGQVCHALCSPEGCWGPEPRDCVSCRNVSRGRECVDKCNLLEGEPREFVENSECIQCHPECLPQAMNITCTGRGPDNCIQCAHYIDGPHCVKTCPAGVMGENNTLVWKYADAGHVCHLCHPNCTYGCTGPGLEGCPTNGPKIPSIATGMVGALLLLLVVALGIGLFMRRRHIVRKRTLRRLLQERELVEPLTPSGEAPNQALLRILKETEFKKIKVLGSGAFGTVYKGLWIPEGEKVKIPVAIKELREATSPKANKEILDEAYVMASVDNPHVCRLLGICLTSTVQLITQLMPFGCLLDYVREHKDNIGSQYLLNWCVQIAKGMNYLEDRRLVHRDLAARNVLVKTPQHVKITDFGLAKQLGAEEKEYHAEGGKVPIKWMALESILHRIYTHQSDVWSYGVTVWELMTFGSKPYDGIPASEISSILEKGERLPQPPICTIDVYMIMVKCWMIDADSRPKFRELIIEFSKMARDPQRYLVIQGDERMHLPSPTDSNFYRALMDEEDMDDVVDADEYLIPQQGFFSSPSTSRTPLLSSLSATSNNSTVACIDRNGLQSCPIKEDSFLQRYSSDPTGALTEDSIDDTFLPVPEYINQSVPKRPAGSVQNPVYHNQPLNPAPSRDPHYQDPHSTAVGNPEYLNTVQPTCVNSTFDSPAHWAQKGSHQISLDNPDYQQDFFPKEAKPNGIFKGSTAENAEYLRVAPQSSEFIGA
T6 sequence (Q16620 32-822): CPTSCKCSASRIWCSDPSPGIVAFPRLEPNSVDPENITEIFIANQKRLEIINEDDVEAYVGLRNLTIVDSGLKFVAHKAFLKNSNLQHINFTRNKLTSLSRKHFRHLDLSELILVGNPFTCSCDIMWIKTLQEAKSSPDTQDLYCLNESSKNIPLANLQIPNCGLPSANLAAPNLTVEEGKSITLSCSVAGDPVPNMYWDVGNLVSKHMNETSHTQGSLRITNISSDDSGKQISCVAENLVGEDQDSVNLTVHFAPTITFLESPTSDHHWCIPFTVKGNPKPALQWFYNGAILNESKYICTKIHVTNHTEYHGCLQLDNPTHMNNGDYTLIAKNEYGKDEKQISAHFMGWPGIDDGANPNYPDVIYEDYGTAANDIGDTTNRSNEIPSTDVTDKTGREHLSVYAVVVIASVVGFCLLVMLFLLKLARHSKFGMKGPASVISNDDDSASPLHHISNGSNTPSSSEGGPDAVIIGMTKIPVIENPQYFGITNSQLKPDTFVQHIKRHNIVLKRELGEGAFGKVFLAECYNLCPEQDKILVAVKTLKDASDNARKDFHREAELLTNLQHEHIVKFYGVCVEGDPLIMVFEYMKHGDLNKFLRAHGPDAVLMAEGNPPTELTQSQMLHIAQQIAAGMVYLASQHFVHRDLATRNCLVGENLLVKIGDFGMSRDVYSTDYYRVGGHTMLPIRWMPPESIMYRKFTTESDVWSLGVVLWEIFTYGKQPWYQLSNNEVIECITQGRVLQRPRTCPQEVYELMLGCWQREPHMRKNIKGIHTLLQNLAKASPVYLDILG
T10 sequence (P0C1S8 whole entry): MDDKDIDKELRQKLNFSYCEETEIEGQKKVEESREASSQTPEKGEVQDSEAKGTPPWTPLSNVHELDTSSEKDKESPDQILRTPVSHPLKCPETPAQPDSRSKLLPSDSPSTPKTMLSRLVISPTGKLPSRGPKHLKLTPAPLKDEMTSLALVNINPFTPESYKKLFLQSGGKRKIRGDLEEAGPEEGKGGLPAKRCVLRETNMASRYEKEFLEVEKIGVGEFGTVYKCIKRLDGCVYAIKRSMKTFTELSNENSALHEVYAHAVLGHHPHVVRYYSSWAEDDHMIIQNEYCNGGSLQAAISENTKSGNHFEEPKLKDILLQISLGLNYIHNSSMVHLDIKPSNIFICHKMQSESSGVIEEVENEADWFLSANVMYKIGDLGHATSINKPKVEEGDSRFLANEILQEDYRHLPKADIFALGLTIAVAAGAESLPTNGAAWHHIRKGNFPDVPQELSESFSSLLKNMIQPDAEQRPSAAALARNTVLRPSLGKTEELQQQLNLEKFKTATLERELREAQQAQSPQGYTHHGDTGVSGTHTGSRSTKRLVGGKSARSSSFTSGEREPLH
T11 sequence (P50750 whole entry): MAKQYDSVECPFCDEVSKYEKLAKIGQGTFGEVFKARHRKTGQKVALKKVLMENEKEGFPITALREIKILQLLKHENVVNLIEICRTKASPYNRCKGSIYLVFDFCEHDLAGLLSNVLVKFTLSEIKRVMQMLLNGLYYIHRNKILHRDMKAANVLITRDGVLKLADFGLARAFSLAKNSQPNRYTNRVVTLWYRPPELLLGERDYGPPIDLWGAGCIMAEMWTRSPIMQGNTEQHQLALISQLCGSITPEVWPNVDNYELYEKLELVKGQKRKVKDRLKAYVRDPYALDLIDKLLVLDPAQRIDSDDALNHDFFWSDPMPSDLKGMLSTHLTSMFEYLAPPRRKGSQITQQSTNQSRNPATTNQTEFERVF

Compound | remaining binding at 1 µM [1] | remaining binding at 1 µM [2] | remaining binding at 1 µM [3] | remaining binding at 1 µM [4] | remaining binding at 1 µM [5] | remaining binding at 1 µM [6] | remaining binding at 1 µM [7] | remaining binding at 1 µM [8] | remaining binding at 1 µM [9] | remaining binding at 1 µM [10] | remaining binding at 1 µM [11] | remaining binding at 1 µM [12] | remaining binding at 1 µM [13] | remaining binding at 1 µM [14]
Cc1ccc(C(=O)Nc2ccc(CN3CCN(C)CC3)c(C(F)(F)F)c2)cc1C#Cc1cnc2c(Nc3cnn(C)c3)cccn12 [Example 1, 4-methyl-3-((8-((1-methyl-1H-pyrazol-4-yl)amino)imidazo[1,2-a]pyridin-3-yl)ethynyl)-N-(4-((4-methylpiperazin-1-yl)methyl)-3-(trifluoromethyl)phenyl)benzamide] | 4% | 3% | 34% | 24% | 0% | 0% | 86% | 77% | 98% | 60% | 72% | 29% | 1% | 100%
Cc1cn(-c2cc(NC(=O)c3ccc(C)c(C#Cc4cnc5c(Nc6cnn(C)c6)cccn45)c3)cc(C(F)(F)F)c2)cn1 [Example 12, 4-methyl-N-(3-(4-methyl-1H-imidazol-1-yl)-5-(trifluoromethyl)phenyl)-3-((8-((1-methyl-1H-pyrazol-4-yl)amino)imidazo[1,2-a]pyridin-3-yl)ethynyl)benzamide] | 29% | 28% | 84% | 15% | 32% | 16% | 98% | 66% | 100% | 80% | 88% | 71% | 22% | 97%
Cc1ccc(NC(=O)C2(C(=O)Nc3ccc(F)cc3)CC2)cc1C#Cc1cnc2c(Nc3cnn(C(C)C)c3)cccn12 [Example 78] | 100% | 85% | 91% | 50% | 100% | 89% | 99% | 91% | 100% | 100% | 100% | 87% | 92% | 100%

Source: patent publication US10870647B2, “Imidazopyridine derivative, method for preparing same, and pharmaceutical composition containing same as active ingredient for preventing or treating cancer” (DAEGU-GYEONGBUK MEDICAL INNOVATION FOUNDATION, priority 2016, dated 2020)
